# According to patent publication US11780845B2 (Relay Therapeutics, Inc., priority 2019, dated 2023):
# Molecular target: FGFR2 (Homo sapiens (Human), UniProt P21802)
# Experiment: FGFR2 Biochemical Caliper Assay
# Method: Compounds of the present invention were also tested in a FGFR2 Biochemical Caliper Assay. Compounds were prepared in 10 mM DMSO solution and serially diluted into 11 concentrations by 3-fold dilution. […] 5 uL of ATP solution (100 uM) was added to start the reaction and the plate was incubated for 90 minutes, then 70 uL of stopping buffer (0.5M EDTA) was added to terminate the reaction. Each well was analyzed using EZ reader.
# FGFR2, sequence (P21802 22-821): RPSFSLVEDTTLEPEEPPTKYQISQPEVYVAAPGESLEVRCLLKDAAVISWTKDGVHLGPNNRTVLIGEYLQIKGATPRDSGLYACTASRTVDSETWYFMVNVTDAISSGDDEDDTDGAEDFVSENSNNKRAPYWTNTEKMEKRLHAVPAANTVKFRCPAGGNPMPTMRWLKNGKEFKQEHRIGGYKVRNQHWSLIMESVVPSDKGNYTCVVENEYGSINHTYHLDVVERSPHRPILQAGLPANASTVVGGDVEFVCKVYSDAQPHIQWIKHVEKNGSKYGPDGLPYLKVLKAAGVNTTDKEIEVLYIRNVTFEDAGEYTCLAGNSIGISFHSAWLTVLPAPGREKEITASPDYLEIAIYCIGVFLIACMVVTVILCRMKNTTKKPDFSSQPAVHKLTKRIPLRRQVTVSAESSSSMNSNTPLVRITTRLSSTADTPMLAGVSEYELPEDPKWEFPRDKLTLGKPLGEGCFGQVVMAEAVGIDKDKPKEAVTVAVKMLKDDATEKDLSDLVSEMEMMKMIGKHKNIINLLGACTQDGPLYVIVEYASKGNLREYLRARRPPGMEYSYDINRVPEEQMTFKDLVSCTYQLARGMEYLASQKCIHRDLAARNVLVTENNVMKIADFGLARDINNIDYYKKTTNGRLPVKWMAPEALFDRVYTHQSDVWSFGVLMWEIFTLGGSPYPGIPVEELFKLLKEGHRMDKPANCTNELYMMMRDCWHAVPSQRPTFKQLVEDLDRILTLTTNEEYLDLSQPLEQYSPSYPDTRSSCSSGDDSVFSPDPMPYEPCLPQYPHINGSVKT
row,SMILES,IC50 [nM]
1,C=C(C)C(=O)Nc1ccc(-c2c(-c3ccc(S(=N)(=O)NC4CCCC4)cc3)c3c(N)ncnc3n2C)cc1 (stereo not drawn) [Example 350],1000 to 100000
2,C=C(C)C(=O)Nc1ccc(-c2c(-c3ccc(C(=O)N(C)C4CCN(C)C4=O)cc3)c3c(N)ncnc3n2C)cc1 (stereo not drawn) [Example 390],1000 to 100000
3,C=C(C)C(=O)Nc1ccc(-c2c(-c3ccc(C(=O)NCC4COCCN4C)cc3)c3c(N)ncnc3n2C)cc1 (stereo not drawn) [Example 392],1000 to 100000
4,C=C(C)C(=O)Nc1ccc(-c2c(-c3ccc(C(=O)N4CCCC4)cc3)c3c(N)ncnc3n2C)cc1C [Example 407],1000 to 100000
5,C=C(C)C(=O)Nc1ccc(-c2c(C3=CC[C@H](C(=O)N4CC5CCC(C5)C4)CC3)c3c(N)ncnc3n2C)cc1 [Example 420],1000 to 100000
6,C=C(C)C(=O)N(C)c1ccc(-c2c(-c3ccc(C(=O)NCC(C)(C)OC)cc3)c3c(N)ncnc3n2C)cc1 [Example 421],1000 to 100000
7,C=C(C)C(=O)Nc1ccc(-c2c(-c3ccc(C(=O)N4CCCC4)nc3)c3c(N)ncnc3n2C)cc1 [Example 422],1000 to 100000
8,C=C(C)C(=O)Nc1ccc(-c2c(-c3ccc(C(=O)NCC(C)(C)OC)nc3)c3c(N)ncnc3n2C)cc1 [Example 438],1000 to 100000
9,C=C(C)C(=O)Nc1ccc(-c2c(-c3cnn(Cc4cccc(C)n4)c3)c3c(N)ncnc3n2C)cc1 [Example 439],1000 to 100000
10,C=C(C)C(=O)Nc1ccc(-c2c(-c3ccc(C(=O)N(C)CC4(OC)CC4)cc3)c3c(N)ncnc3n2C)cc1 [Example 440],1000 to 100000
11,C=C(C)C(=O)Nc1ccc(-c2c(-c3ccc(Oc4ncc(F)cn4)c(N(C)C)c3)c3c(N)ncnc3n2C)cc1 [Example 443],1000 to 100000
12,C=C(C)C(=O)Nc1ccc(-c2c(-c3ccc(Oc4ncc(F)cn4)nc3)c3c(N)ncnc3n2C)cc1 [Example 453],1000 to 100000
13,C=C(C)C(=O)Nc1ccc(-c2c(-c3ccc(C(=O)N(CCN(C)C)CC(F)(F)F)cc3)c3c(N)ncnc3n2C)cc1 [Example 454],250 to 1000
14,C=C(C)C(=O)Nc1ccc(-c2c(-c3ccc(Oc4ncc(N(C)C)cn4)c(F)c3)c3c(N)ncnc3n2C)cc1 [Example 455],250 to 1000
15,C=C(C)C(=O)Nc1ccc(-c2c(-c3ccc(Oc4ncc(N(C)C)cn4)cc3)c3c(N)ncnc3n2C)cc1 [Example 456],250 to 1000
16,C=C(C)C(=O)Nc1ccc(-c2c(-c3ccc(C(=O)N(C)CC4CCOC4)cc3)c3c(N)ncnc3n2C)cc1 (stereo not drawn) [Example 469],250 to 1000
17,C=C(C)C(=O)Nc1ccc(-c2c(-c3cnc(Oc4cccc(C)n4)cn3)c3c(N)ncnc3n2C)cc1 [Example 480],250 to 1000
18,C=C(C)C(=O)Nc1ccc(-c2c(-c3ccc(C(=O)N(C)Cc4ncno4)cc3)c3c(N)ncnc3n2C)cc1 [Example 481],1000 to 100000

row,SMILES,IC50 [nM]
1,C=C(C)C(=O)Nc1ccc(-c2c(-c3cnc(Oc4cccc(C)n4)nc3)c3c(N)ncnc3n2C)cc1 [Example 483],1000 to 100000
2,C=C(C)C(=O)Nc1ccc(-c2c(-c3ccc(C(=O)N4CCCC4)cc3)c3c(N)ncnc3n2C)c(CN2CCOCC2)c1 [Example 486],1000 to 100000
3,C=C(C)C(=O)Nc1ccc(-c2c(-c3ccn(Cc4cccc(C)n4)c(=O)c3)c3c(N)ncnc3n2C)cc1 [Example 488],1000 to 100000
4,C=C(C)C(=O)Nc1ccc(-c2c(-c3ccc(C(=O)N(C)CC4COC4)cc3)c3c(N)ncnc3n2C)c(F)c1 [Example 489],250 to 1000
5,C=C(C)C(=O)Nc1ccc(-c2c(-c3ccc(Oc4nccc(C)n4)c(OCC)c3)c3c(N)ncnc3n2C)cc1 [Example 491],1000 to 100000
6,Cn1c(-c2ccc(C#N)nc2)c(-c2ccc(C(=O)N3CCCC3)cc2)c2c(N)ncnc21 [Example 493],1000 to 100000
7,C=C(C)C(=O)Nc1ccc(-c2c(-c3ccc(Oc4nccc(C)n4)c(COC)c3)c3c(N)ncnc3n2C)cc1 [Example 501],1000 to 100000
8,C=C(C)C(=O)Nc1ccc(-c2c(-c3ccc(Oc4nccc(C)n4)c(N(C)C)c3)c3c(N)ncnc3n2C)cc1 [Example 504],1000 to 100000
9,C=C(C)C(=O)Nc1ccc(-c2c(-c3ccc(C(=O)N4CCCC4)cc3)c3c(N)ncnc3n2C)c(CC)c1 [Example 517],250 to 1000
10,C=C(C)C(=O)Nc1ccc(-c2c(-c3ccc(Oc4nccc(C)n4)c(F)c3)c3c(N)ncnc3n2C)c(C(=O)N(C)C)c1 [Example 519],1000 to 100000
11,Cn1c(-c2ccc(NC(=O)C3=CCCC3)cc2)c(-c2ccc(C(=O)N3CCCC3)cc2)c2c(N)ncnc21 [Example 523],1000 to 100000
12,Cn1c(-c2ccc(NC(=O)C=C3CCC3)cc2)c(-c2ccc(C(=O)N3CCCC3)cc2)c2c(N)ncnc21 [Example 525],1000 to 100000
13,Cn1c(-c2ccc(N3CCC=CC3=O)cc2)c(-c2ccc(C(=O)N3CCCC3)cc2)c2c(N)ncnc21 [Example 540],1000 to 100000
14,Cn1c(-c2ccc(NC(=O)CC3=CCCC3)cc2)c(-c2ccc(C(=O)N3CCCC3)cc2)c2c(N)ncnc21 [Example 542],1000 to 100000
15,Cn1c(-c2ccc(N3CCC=CS3(=O)=O)cc2)c(-c2ccc(C(=O)N3CCCC3)cc2)c2c(N)ncnc21 [Example 544],1000 to 100000
16,Cn1c(-c2ccc(NC(=O)C=C3CCCC3)cc2)c(-c2ccc(C(=O)N3CCCC3)cc2)c2c(N)ncnc21 [Example 545],1000 to 100000
17,C=C(C)C(=O)Nc1ccc(-c2c(-c3ccc(C(=O)N4CC5CC4(CO)C5)cc3)c3c(N)ncnc3n2C)cc1 [Example 547],250 to 1000
18,C=C(C)C(=O)Nc1ccc(-c2c(C3=CCC(Oc4ccn(C)n4)CC3)c3c(N)ncnc3n2C)cc1 (stereo not drawn) [Example 551],250 to 1000

# The remaining lines, values ahead:
row,IC50 [nM],SMILES
1,< 100,C=C(C)C(=O)Nc1ccc(-c2c(-c3ccc(C(=O)NCC4(C)CC4)cc3)c3c(N)ncnc3n2C)cc1 [Example 349]
2,100 to 250,C=C(C)C(=O)Nc1ccc(-c2c(-c3ccc(C(=O)N4CCC[C@@H]4C#N)cc3)c3c(N)ncnc3n2C)cc1 [Example 356]
3,< 100,C=C(C)C(=O)Nc1ccc(-c2c(-c3ccc(C(=O)NC4CCNC4)cc3)c3c(N)ncnc3n2C)cc1 (stereo not drawn) [Example 358]
4,< 100,C=C(C)C(=O)Nc1ccc(-c2c(-c3ccc(C(=O)N4CCC[C@H]4C#N)cc3)c3c(N)ncnc3n2C)cc1 [Example 359]
5,< 100,C=C(C)C(=O)Nc1ccc(-c2c(-c3ccc(C(=O)NCC4(C#N)CC4)cc3)c3c(N)ncnc3n2C)cc1 [Example 360]
6,< 100,C=C(C)C(=O)Nc1ccc(-c2c(-c3ccc(C(=O)NCCF)cc3)c3c(N)ncnc3n2C)cc1 [Example 363]
7,< 100,C=C(C)C(=O)Nc1ccc(-c2c(-c3ccc(C(=O)NC4CC(F)C4)cc3)c3c(N)ncnc3n2C)cc1 (stereo not drawn) [Example 364]
8,100 to 250,C=C(C)C(=O)Nc1ccc(-c2c(-c3ccc(C(=O)NCC4COC4)cc3)c3c(N)ncnc3n2C)cc1 [Example 366]
9,250 to 1000,C=C(C)C(=O)Nc1ccc(-c2c(-c3ccc(C(=O)NCCC4COC4)cc3)c3c(N)ncnc3n2C)cc1 [Example 367]
10,100 to 250,C=C(C)C(=O)Nc1ccc(-c2c(-c3ccc(C(=O)NC4CCN(C)C4=O)cc3)c3c(N)ncnc3n2C)cc1 (stereo not drawn) [Example 389]
11,250 to 1000,C=C(C)C(=O)Nc1ccc(-c2c(C3=CCC(C(=O)NCC(C)(C)OC)CC3)c3c(N)ncnc3n2C)cc1 (stereo not drawn) [Example 394]
12,100 to 250,C=C(C)C(=O)Nc1ccc(-c2c(-c3ccc(C(=O)NC4CCOC4)c(F)c3)c3c(N)ncnc3n2C)cc1 (stereo not drawn) [Example 396]
13,100 to 250,C=C(C)C(=O)Nc1ccc(-c2c(-c3ccc(C(=O)NC4CCOC4)c(OC)c3)c3c(N)ncnc3n2C2COC2)cc1 (stereo not drawn) [Example 400]
14,100 to 250,C=C(C)C(=O)Nc1ccc(-c2c(C3=CCC(C(=O)NCC4CCC4)CC3)c3c(N)ncnc3n2C)cc1 (stereo not drawn) [Example 402]
15,100 to 250,C=C(C)C(=O)Nc1ccc(-c2c(-c3ccc(Oc4cccc(C)n4)cc3)c3c(N)ncnc3n2C)cc1COC [Example 403]
16,100 to 250,C=C(C)C(=O)Nc1ccc(-c2c(C3=CCC(C(=O)N4CCCC[C@@H]4C)CC3)c3c(N)ncnc3n2C)cc1 (stereo partly drawn) [Example 404]
17,< 100,Cc1cccc(Oc2ccc(-c3c(-c4cnc(C#N)nc4)n(C)c4ncnc(N)c34)cc2)n1 [Example 405]
18,< 100,C=C(C)C(=O)Nc1ccc(-c2c(-c3ccc(C(=O)N(C)C(CF)CF)cc3)c3c(N)ncnc3n2C)cc1 [Example 412]
19,100 to 250,C=C(C)C(=O)N(C)c1ccc(-c2c(-c3ccc(Oc4cccc(C)n4)cc3)c3c(N)ncnc3n2C)cc1 [Example 414]
20,250 to 1000,C=C(C)C(=O)Nc1ccc(-c2c(-c3ccc(C(=O)N(CCN)CC(F)(F)F)cc3)c3c(N)ncnc3n2C)cc1 [Example 430]
21,250 to 1000,C=C(C)C(=O)Nc1ccc(-c2c(-c3ccc(Oc4ncc(OC)cn4)cc3)c3c(N)ncnc3n2C)cc1 [Example 450]
22,100 to 250,C=C(C)C(=O)Nc1ccc(-c2c(-c3ccc(C(=O)NCC4CCC4)c(C(C)=O)c3)c3c(N)ncnc3n2C)cc1 [Example 457]
23,100 to 250,C=C(C)C(=O)Nc1ccc(-c2c(-c3ccc(C(=O)N(C)CC4(F)COC4)cc3)c3c(N)ncnc3n2C)c(F)c1 [Example 467]
24,100 to 250,C=C(C)C(=O)Nc1ccc(-c2c(-c3cc(F)c(C(=O)NCC(C)(C)OC)c(F)c3)c3c(N)ncnc3n2C)cc1 [Example 470]
25,100 to 250,C=C(C)C(=O)Nc1ccc(-c2c(-c3ccc(C(=O)N4CCCC4)cc3)c3c(N)ncnc3n2C)c(CC)c1 [Example 477]
26,100 to 250,C=C(C)C(=O)Nc1ccc(-c2c(-c3ccc(C(=O)N4CCCC4)cc3)c3c(N)ncnc3n2C)c(C2CC2)c1 [Example 478]
27,< 100,C=C(C)C(=O)Nc1ccc(-c2c(-c3ccc(C(=O)N4CCCC4)cc3)c3c(N)ncnc3n2C)c(CC)c1 [Example 516]
28,< 100,C=C(C)C(=O)Nc1ccc(-c2c(-c3ccc(C(=O)N4CCCC4)cc3)c3c(N)ncnc3n2C)c(C2CC2)c1 [Example 518]
29,< 100,C=C(C)C(=O)Nc1ccc(-c2c(-c3ccc(Oc4nccc(C)n4)c(F)c3)c3c(N)ncnc3n2C2CCOC2)cc1 (stereo not drawn) [Example 536]
30,< 100,C=C(C)C(=O)Nc1ccc(-c2c(-c3ccc(C(=O)N4CC5CC4(C)C5)cc3)c3c(N)ncnc3n2C)cc1 [Example 548]
